# Measured values: the supplement of paper PMC10307832
# What was measured:
# Trametinib + Decitabine = compound: CC(=O)Nc1cccc(-n2c(=O)n(C3CC3)c(=O)c3c(Nc4ccc(I)cc4F)n(C)c(=O)c(C)c32)c1 [Trametinib] + Nc1ncn([C@H]2C[C@H](O)[C@@H](CO)O2)c(=O)n1 [Decitabine] (partner 2 µM); experiment: relative viability (nuclei count vs DMSO), 5 days (fraction); higher = more cells survive
# Summary of the method: (§1)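 Dosing by pin tool came one day after lung cancer cell lines were seeded in 1536-well plates, using either one drug or a fixed anchor-drug dose plus five library-drug doses (not always all listed) in √10 steps. After 5 days, nuclei were counted on 4× images. Relative viability is treated-well nuclei count divided by vehicle-well nuclei count, and values are medians of duplicate plates.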
# [1] = compound: CN1C=C(C2=CC=CC=C21)/C=C\3/C4=C(C=CC=N4)NC3=O + CC(=O)Nc1cccc(-n2c(=O)n(C3CC3)c(=O)c3c(Nc4ccc(I)cc4F)n(C)c(=O)c(C)c32)c1 [Trametinib] (partner 0.02 µM); experiment: as above
# Summary of the method: as §1
Cell Line,relative viability (Trametinib + Decitabine; first compound 0.0025 µM),relative viability (Trametinib + Decitabine; first compound 0.007906 µM),relative viability (Trametinib + Decitabine; first compound 0.025 µM),relative viability (Trametinib + Decitabine; first compound 0.07906 µM),relative viability (Trametinib + Decitabine; first compound 0.25 µM),relative viability ([1]; first compound 0.02 µM),relative viability ([1]; first compound 0.06325 µM),relative viability ([1]; first compound 0.2 µM),relative viability ([1]; first compound 0.6325 µM),relative viability ([1]; first compound 2 µM)
NCI-H661,0.522,0.537,0.484,0.412,0.431,0.615,0.65,0.56,0.533,0.589
CAL-12T,,,,,,0.32,0.308,0.315,0.325,0.298
HARA,0.606,0.469,0.474,0.421,0.422,0.673,0.635,,0.605,0.492
NCI-H596,0.967,0.96,0.952,0.968,0.739,0.741,0.781,0.755,0.744,0.867
LU99A,0.796,0.813,0.59,0.665,0.511,0.554,0.504,0.494,0.588,0.597
LC-2-ad,0.803,0.683,0.782,0.689,0.7,0.98,0.865,0.967,0.953,0.87
NCI-H1650,0.39,0.467,0.369,0.399,0.206,0.559,0.535,0.559,0.582,0.53
NCI-H1915,0.268,0.248,0.24,0.227,0.188,0.3,0.32,0.293,0.303,0.285
ABC-1,0.884,1.16,1.02,1.24,0.837,,,,,
HCC-44,0.894,0.924,1.05,0.943,0.848,1.08,1.12,0.968,1.04,0.884
HCC-78,0.81,0.662,0.621,0.683,0.66,0.522,0.675,0.706,0.553,0.694
LXF-289,0.399,0.408,0.385,0.319,0.391,0.677,0.679,0.739,0.717,0.72
201T,0.854,0.743,0.765,0.782,0.749,0.758,0.727,0.754,0.797,0.763
NCI-H1734,0.508,0.438,,0.426,0.453,0.603,0.619,,0.676,0.699
NCI-H2126,0.574,0.558,0.514,0.535,0.523,0.558,0.55,0.564,0.212,0.506
LOU-NH91,0.804,0.776,0.734,0.71,0.544,0.749,0.751,0.746,0.678,0.74
NCI-H1792,0.436,0.443,0.318,0.364,0.291,0.474,0.54,0.462,0.353,0.406
NCI-H1651,0.559,0.689,0.48,0.422,0.333,0.818,0.833,0.861,0.837,0.868

Cell Line,relative viability (Trametinib + Decitabine; first compound 0.0025 µM),relative viability (Trametinib + Decitabine; first compound 0.007906 µM),relative viability (Trametinib + Decitabine; first compound 0.025 µM),relative viability (Trametinib + Decitabine; first compound 0.07906 µM),relative viability (Trametinib + Decitabine; first compound 0.25 µM),relative viability ([1]; first compound 0.02 µM),relative viability ([1]; first compound 0.06325 µM),relative viability ([1]; first compound 0.2 µM),relative viability ([1]; first compound 0.6325 µM),relative viability ([1]; first compound 2 µM)
A549,0.224,0.245,0.209,0.168,0.0957,,,,,
HCC-366,0.29,0.307,0.276,0.273,0.206,0.279,0.316,0.307,0.291,0.318
EKVX,0.36,0.351,0.326,0.372,0.222,0.268,,,0.233,0.201
NCI-H1993,0.556,0.567,0.582,0.57,0.524,0.517,0.5,0.589,0.342,0.507
NCI-H522,0.783,0.602,0.678,0.64,0.672,0.746,0.712,0.793,0.752,0.852
NCI-H23,0.291,0.297,0.281,0.269,0.258,0.346,0.332,0.301,0.287,0.443
HCC-827,0.365,0.289,0.315,0.274,0.236,0.509,0.528,,0.571,0.566
PC-3 [JPC-3],0.807,0.724,0.757,,0.632,0.824,0.657,0.667,0.718,0.717
NCI-H1355,0.346,0.353,0.309,0.347,0.34,0.336,0.361,0.423,0.274,0.3
NCI-H727,0.818,0.619,0.541,0.431,0.453,0.461,0.344,0.361,0.373,0.401
NCI-H1975,0.332,0.336,0.345,0.261,0.278,0.32,0.237,0.323,0.326,0.271
NCI-H460,0.481,0.389,0.361,0.305,0.112,0.304,0.158,0.0911,0.0905,0.12
EPLC-272H,0.357,0.324,0.326,0.336,0.293,0.348,0.263,,0.283,0.267
SW 900,0.396,0.335,0.388,0.491,0.39,0.763,,,0.676,0.799
NCI-H1648,0.508,0.44,0.554,0.517,0.371,0.691,0.543,0.42,0.532,0.482
SK-LU-1,0.585,0.632,0.473,0.431,0.455,0.414,0.475,0.475,0.416,0.533
NCI-H322M,0.691,0.681,0.631,0.585,0.566,0.476,0.503,0.51,0.468,0.553
